Test results from ChEMBL document CHEMBL2440117, “Improved inhibitory activities against tumor-cell migration and invasion by 15-benzylidene substitution derivatives of andrographolide” (Bioorg Med Chem Lett, 2013).
Activity calls are given as the source filed them. The calls are words filed in the database; no cut-off is given here.

How the values were obtained:
PC-3 [1] = assay: Cytotoxicity against human PC3 cells assessed as growth inhibition at 10 uM after 48 hrs by MTT assay relative to control; format: functional
PC-3 [2] = assay: Antimigratory activity against human PC3 cells at 10 uM after 12 to 48 hrs by wound-healing assay relative to control; format: functional
SGC-7901 [3] = assay: Cytotoxicity against human SGC7901 cells assessed as growth inhibition at 10 uM after 48 hrs by MTT assay relative to control; format: functional, cell-based
SGC-7901 [4] = assay: Antimigratory activity against human SGC7901 cells at 10 uM after 12 to 48 hrs by wound-healing assay relative to control; format: functional
5637 [5] = assay: Cytotoxicity against human 5637 cells assessed as growth inhibition at 5 uM after 48 hrs by MTT assay relative to control; format: functional; details: Homo sapiens, 5637, 48 h; read-out: GI
5637 [6] = assay: Antimigratory activity against human 5637 cells at 5 uM after 12 to 48 hrs by wound-healing assay relative to control; format: functional
HT-29 [7] = assay: Cytotoxicity against human HT-29 cells assessed as growth inhibition at 10 uM after 48 hrs by MTT assay; format: functional, cell-based
HT-29 [8] = assay: Antimigratory activity against human HT-29 cells at 10 uM after 12 to 48 hrs by wound-healing assay relative to control; format: functional
ECa-109 = assay: Cytotoxicity against human EC109 cells assessed as growth inhibition at 10 uM after 48 hrs by MTT assay; format: functional, cell-based
[9] = Antimigratory activity against human EC109 cells at 10 uM after 12 to 48 hrs by wound-healing assay relative to control; format: functional; details: ECa-109
A549 [10] = assay: Cytotoxicity against human A549 cells assessed as growth inhibition at 10 uM after 48 hrs by MTT assay; format: functional, cell-based
A549 [11] = assay: Antimigratory activity against human A549 cells after 12 to 48 hrs by wound-healing assay; format: functional, cell-based
SGC-7901 [12] = assay: Antimigratory activity against human SGC7901 cells after 12 to 48 hrs by wound-healing assay; format: functional, cell-based
A549 [13] = assay: Antimigratory activity against human A549 cells at 10 uM after 12 to 48 hrs by wound-healing assay relative to control; format: functional
5637 [14] = assay: Cytotoxicity against human 5637 cells assessed as growth inhibition at 10 uM after 48 hrs by MTT assay relative to control; format: functional, cell-based
5637 [15] = assay: Antimigratory activity against human 5637 cells at 10 uM after 12 to 48 hrs by wound-healing assay relative to control; format: functional
5637 [16] = assay: Antimigratory activity against human 5637 cells after 12 to 48 hrs by wound-healing assay; format: functional, cell-based

IC50 (A549 [11]) [µM] | IC50 (SGC-7901 [12]) [µM] | IC50 5637 [16] [µM] | Compound | growth inhibition (GI) (PC-3 [1]) | inhibition (PC-3 [2]) | growth inhibition (GI) (SGC-7901 [3]) | inhibition (SGC-7901 [4]) | inhibition of growth at 5 µM 5637 [5] [%] | inhibition at 5 µM 5637 [6] [%] | growth inhibition (GI) (HT-29 [7]) | inhibition at 10 µM (HT-29 [8]) [%] | growth inhibition (GI) (ECa-109) | inhibition at 10 µM [9] [%] | growth inhibition (GI) (A549 [10]) | inhibition at 10 µM (PC-3 [2]) [%] | inhibition at 10 µM (A549 [13]) [%] | inhibition at 10 µM (SGC-7901 [4]) [%] | growth inhibition (GI) 5637 [14] | inhibition 5637 [15] | inhibition at 10 µM 5637 [15] [%]
 |  |  | C=C1CC[C@@H]2[C@]3(C)COCO[C@@H]3CC[C@@]2(C)[C@@H]1C/C=C1/C(=O)OC[C@H]1O | inactive | inactive | inactive | inactive | 25.3 | 36.3 |  |  |  |  |  |  |  |  |  |  | 
7.2 | 8 |  | C=C1CC[C@@H]2[C@](C)(CO)[C@H](O)CC[C@@]2(C)[C@@H]1/C=C/C1=CC(=C/c2ccc(F)cc2)/OC1=O | inactive |  | inactive |  | 32.5 | 19.5 | inactive | 39.5 | inactive | 34.2 | inactive | 34.3 |  |  |  |  | 
 |  |  | C=C1CC[C@@H]2[C@](C)(CO)[C@H](O)CC[C@@]2(C)[C@@H]1/C=C/C1=CC(=C/c2ccc(OC)cc2)/OC1=O | inactive |  | inactive |  | 33.7 | 17.9 | inactive | 38.7 | inactive | 41.3 | inactive | 34 | 35.1 | 48.5 |  |  | 
 |  |  | C=C1CC[C@@H]2[C@](C)(COC(=O)CCC(=O)O)[C@H](OC(=O)CCC(=O)O)CC[C@@]2(C)[C@@H]1/C=C/C1=CC(=C/c2ccc(Cl)cc2)/OC1=O | inactive | inactive | inactive | inactive |  |  |  |  |  |  |  |  |  |  | inactive | inactive | 
 |  | 8.1 | C=C1CC[C@@H]2[C@](C)(COC(=O)c3cccnc3)[C@H](OC(=O)c3cccnc3)CC[C@@]2(C)[C@@H]1/C=C/C1=CC(=C/c2ccc(Cl)cc2)/OC1=O | inactive | inactive | inactive |  |  |  |  |  |  |  |  |  |  | 22.3 | inactive |  | 
 |  |  | C[C@]1(CO)[C@H]2CC[C@@]3(CO3)[C@@H](/C=C/C3=CCOC3=O)[C@]2(C)CC[C@H]1O | inactive | inactive | inactive | inactive |  |  |  |  |  |  |  |  |  |  | inactive |  | 22.5
 |  |  | C[C@@]12COCO[C@@H]1CC[C@]1(C)[C@@H]2CC[C@@]2(CO2)[C@H]1C/C=C1/C(=O)OC[C@H]1O | inactive | inactive | inactive | inactive | 32.9 | 18.4 |  |  |  |  |  |  |  |  |  |  | 
